Columns and labels:
[1] = system: Staphylococcus aureus (ATCC 29213); assay type: cell-based; conditions: S. aureus ATCC 29213, antibiotic alone, triplicate; for Antibiotics MBC Alone: 99.9% killing; for Antibiotics MIC Alone: microbroth dilution
Excerpt: (§1) All bacterial susceptibility, biofilm, and synergistic assays of peptides, antibiotics, and peptides-antibiotics combinations used bacterial strains obtained from the American Type Tissue Culture Collection (ATCC, Manassas, VA, USA) that states the mechanism of resistance for each strain according to ATCC number. Gram-positive bacteria were represented by five strains, the wild type strain Staphylococcus aureus (ATCC 29213) and methicillin-resistant S. aureus (MRSA) (ATCC 33591) in addition to clinically isolated strains S. aureus (ATCC BAA-41& 43300) and Enterococcus faecalis (ATCC BAA-2316). The Gram-negative bacteria strains were represented by wild type strains of Escherichia coli (ATCC 25922 & 35218) and Pseudomonas aeruginosa (ATCC 27853) as well as the clinically isolated multidrug-resistant strain P. aeruginosa (ATCC BAA-2114). The bacteria were cultured onto Muller Hinton Agar (Scharlab, S.L, Barcelona, Spain). Mueller Hinton Broth (Oxoid Ltd., Basingstoke, UK) was used to prepare all bacterial suspensions and to dissolve the peptides and the antibiotics. The assay was performed in sterile 96-well polypropylene microtiter plates.
(§2) All bacterial susceptibility assays were conducted according to the microbroth dilution method outlined by the Clinical and Laboratory Standards Institute (CLSI) guidelines.
(§3) Briefly, pre-sterilized MHB was used as a growth medium for organisms obtained from stock media with glycerol. Bacterial cells were grown overnight in MHB and diluted to 10^6 CFU/mL in the same medium prior to use. For peptide, serial concentrations in the range of 0.5–100 μM were prepared. Then, 50 μL of each peptide concentration and 50 µL of diluted bacterial suspension were added to each well of a 96-well microtiter plate. Peptide solutions were prepared by dissolving the peptide in sterile MHB. Then, the plates were incubated overnight in a humidified atmosphere, and at 37 °C. Bacterial growth was determined by measuring the optical density (OD) at λ = 600 nm using an ELISA plate reader (Epoch, BioTek, Winooski, VT, USA) and the minimum inhibitory concentration (MIC) was determined.
(§4) As described in the previous section, the MIC and MBC values of antibiotics employed in this study were determined against subjected bacterial strains via preparing different concentrations of each antibiotic.

[2] = system: S. aureus (ATCC 43300); assay type: cell-based, Staphylococcus aureus; conditions: S. aureus ATCC 43300, antibiotic alone, triplicate; for Antibiotics MBC Alone: 99.9% killing; for Antibiotics MIC Alone: microbroth dilution
Excerpt: as §1, §2, §3, §4

[3] = system: S. aureus (ATCC BAA-41); assay type: cell-based, Staphylococcus aureus; conditions: S. aureus ATCC BAA-41, antibiotic alone, triplicate; for Antibiotics MBC Alone: 99.9% killing; for Antibiotics MIC Alone: microbroth dilution
Excerpt: as §1, §2, §3, §4

[4] = system: methicillin-resistant S. aureus (MRSA) (ATCC 33591); assay: MIC/MBC, microbroth dilution (CLSI); assay type: cell-based, Staphylococcus aureus; conditions: S. aureus ATCC 33591, antibiotic alone, triplicate; for Antibiotics MBC Alone: 99.9% killing; for Antibiotics MIC Alone: microbroth dilution
Excerpt: as §1, §2, §3, §4

[5] = system: P. aeruginosa (ATCC BAA-2114); assay type: cell-based, Pseudomonas aeruginosa; conditions: P. auroginosa ATCC BAA-2114, antibiotic alone, triplicate; for Antibiotics MBC Alone: 99.9% killing; for Antibiotics MIC Alone: microbroth dilution
Excerpt: as §1, §2, §3, §4

[6] = system: S. aureus (ATCC 29213); assay: Broth microdilution checkerboard, UP-5 with antibiotics; assay type: cell-based, Staphylococcus aureus; conditions: for Antibiotics Reduction in MIC (%): antibiotic MIC in combination with UP-5 compared to MIC alone; for Antibiotics MIC in Combination: antibiotic in combination with UP-5, checkerboard, triplicate
Excerpt: as §1
(§5) According to the broth microdilution checkerboard technique, the MIC and MBC values of peptide-antibiotics combinations against wild type and multidrug resistant bacterial strains were determined. Serial concentrations of peptide and each antibiotic were prepared in the range of 0.005–100 μM. In each well of a 96-well microtiter plate, 25 μL of each peptide concentration were added to 25 μL of each antibiotic concentration which is followed by adding 50 μL of diluted bacterial suspension (10^6 CFU/mL) to each well. The prepared concentrations of peptide and each antibiotic were arranged into rows and columns, respectively, in a 96-well microtiter plate according the checkerboard technique. Then as described previously (see Section 2.4.1), the procedure was followed. All MIC and MBC determinations of all assays were made in triplicate.
(§6) The fractional inhibitory concentration (FIC) is defined as the inhibitory concentration of the antimicrobial combination divided by that of the single antimicrobial component. To calculate FIC index for peptide-antibiotic combinations, the following equation was used:(1) FIC index=MIC of drug X in combination/MIC of drug X alone+MIC of drug Y in combination/MIC of drug Y alone
(§7) The FIC indices were interpreted as follows: ≤0.5: synergistic activity, 0.5–1: additive activity, 1–4 indifferent, >4: antagonism. Interpretation and assessment of the FIC indices were performed according to the broth microdilution checkerboard technique.

[7] = system: S. aureus (ATCC 33591); assay: as above; assay type: cell-based, Staphylococcus aureus; conditions: for Effect of the combination according to FIC value: S. aureus (ATCC 33591); for Antibiotics Reduction in MIC (%): antibiotic MIC in combination with UP-5 compared to MIC alone; for Antibiotics MIC in Combination: antibiotic in combination with UP-5, checkerboard, triplicate
Excerpt: as §1, §5, §6, §7

[8] = system: S. aureus (ATCC 43300); assay: as above; assay type: cell-based, Staphylococcus aureus; conditions: for Effect of the combination according to FIC value: S. aureus (ATCC 43300); for Antibiotics MIC in Combination: antibiotic in combination with UP-5, checkerboard, triplicate
Excerpt: as §1, §5, §6, §7

[9] = system: S. aureus (ATCC BAA-41); assay: as above; assay type: cell-based, Staphylococcus aureus; conditions: for Antibiotics MIC in Combination: antibiotic in combination with UP-5, checkerboard, triplicate; for Antibiotics Reduction in MIC (%): antibiotic MIC in combination with UP-5 compared to MIC alone
Excerpt: as §1, §5, §6, §7

[10] = system: P. aeruginosa (ATCC BAA-2114); assay: as above; assay type: cell-based, Pseudomonas aeruginosa; conditions: for Effect of the combination according to FIC value: P. aeruginosa (ATCC 2114 as printed); for Antibiotics Reduction in MIC (%): antibiotic MIC in combination with UP-5 compared to MIC alone; for Antibiotics MIC in Combination: antibiotic in combination with UP-5, checkerboard, triplicate
Excerpt: as §1, §5, §6, §7

| SMILES | Antibiotics MBC Alone [1] | Antibiotics MIC Alone [1] | Antibiotics MBC Alone [2] | Antibiotics MIC Alone [2] | Antibiotics MBC Alone [3] | Antibiotics MIC Alone [3] | Antibiotics MBC Alone [4] | Antibiotics MIC Alone [4] | Antibiotics MBC Alone [5] | Antibiotics MIC Alone [5] | Antibiotics Reduction in MIC (%) ([6]; S. aureus ATCC 29213) | Antibiotics MIC in Combination ([6]; S. aureus ATCC 29213) | Effect of the combination according to FIC value ([7]; antibiotic-UP-5 combination) | Antibiotics Reduction in MIC (%) ([7]; S. aureus ATCC 33591) | Effect of the combination according to FIC value ([8]; antibiotic-UP-5 combination) | Antibiotics MIC in Combination ([8]; S. aureus ATCC 43300) | Antibiotics MIC in Combination ([9]; S. aureus ATCC BAA-41) | Effect of the combination according to FIC value ([10]; antibiotic-UP-5 combination) | Antibiotics Reduction in MIC (%) ([10]; P. auroginosa ATCC BAA-2114) | Antibiotics MIC in Combination ([10]; P. auroginosa ATCC BAA-2114) | also measured |
| --- | --- | --- | --- | --- | --- | --- | --- | --- | --- | --- | --- | --- | --- | --- | --- | --- | --- | --- | --- | --- | --- |
| CC1(C)S[C@@H]2[C@H](NC(=O)[C@H](N)c3ccccc3)C(=O)N2[C@H]1C(=O)O [Ampicillin, ampicillin] | 2.5 µM | 2.5 µM | 20 µM | 20 µM | 40 µM | 40 µM | 85 µM | 85 µM | > 500 µM | > 500 µM | <50% | 2.5 µM | synergistic (≤0.5: synergistic activity) | 85.3% | additive (0.5–1: additive activity) | 2.5 µM | 20 µM | additive (0.5–1: additive activity) | >50% | 250 µM | – |
| O=C(N[C@H](CO)[C@H](O)c1ccc([N+](=O)[O-])cc1)C(Cl)Cl [Chloramphenicol, chloramphenicol] | 30 µM | 20 µM | 20 µM | 15 µM | 30 µM | 25 µM | 150 µM | 130 µM | 325 µM | 200 µM | – | 10 µM | additive (0.5–1: additive activity) | 50% | additive (0.5–1: additive activity) | 7.5 µM | 7.5 µM | synergistic (≤0.5: synergistic activity) | 93.7% | 12.5 µM | Effect of the combination according to FIC value ([6]; S. aureus (ATCC 29213), antibiotic-UP-5 combination): additive (0.5–1: additive activity); FIC Index ([6]; S. aureus ATCC 29213, antibiotic-UP-5 combination, checkerboard): 0.75; Antibiotics MIC in Combination ([7]; S. aureus ATCC 33591): 65 µM; FIC Index ([7]; S. aureus ATCC 33591, antibiotic-UP-5 combination, checkerboard): 1; FIC Index ([8]; S. aureus ATCC 43300, antibiotic-UP-5 combination, checkerboard): 1; Effect of the combination according to FIC value ([9]; S. aureus (ATCC BAA-41), antibiotic-UP-5 combination): additive (0.5–1: additive activity); Antibiotics Reduction in MIC (%) ([9]; S. aureus ATCC BAA-41): 70%; FIC Index ([9]; S. aureus ATCC BAA-41, antibiotic-UP-5 combination, checkerboard): 0.8; FIC Index ([10]; P. auroginosa ATCC BAA-2114, antibiotic-UP-5 combination, checkerboard): 0.24 |
| CC[C@H]1OC(=O)[C@H](C)[C@@H](O[C@H]2C[C@@](C)(OC)[C@@H](O)[C@H](C)O2)[C@H](C)[C@@H](O[C@@H]2O[C@H](C)C[C@H](N(C)C)[C@H]2O)[C@](C)(O)C[C@@H](C)C(=O)[C@H](C)[C@@H](O)[C@]1(C)O [Erythromycin, erythromycin] | 1.5 µM | 0.5 µM | 150 µM | 100 µM | 400 µM | 350 µM | 10 µM | 8 µM | 150 µM | – | <50% | 0.5 µM | – | <50% | – | 100 µM | – | additive (0.5–1: additive activity) | 60% | 50 µM | Antibiotics MIC in Combination ([7]; S. aureus ATCC 33591): 8 µM; Antibiotics Reduction in MIC (%) ([8]; S. aureus ATCC 43300, antibiotic MIC in combination with UP-5 compared to MIC alone): <50%; Antibiotics Reduction in MIC (%) ([9]; S. aureus ATCC BAA-41): 64.3% |

— paper PMC5874699, “Antimicrobial and Antibiofilm Activity of UP-5, an Ultrashort Antimicrobial Peptide Designed Using Only Arginine and Biphenylalanine” (Pharmaceuticals, 2018)
